Assay results reported in patent US10457655B2, “Compounds and compositions for inhibition of FASN” (FORMA Therapeutics, Inc., priority 2013, dated 2019).
pIC50: −log10 of the molar value.

The compounds below were run against FASN enzyme (Homo sapiens, UniProt P49327) (assay: Enzymatic Assay for FASN Inhibitors). Conditions: not given.
FASN enzyme, sequence (P49327 whole entry): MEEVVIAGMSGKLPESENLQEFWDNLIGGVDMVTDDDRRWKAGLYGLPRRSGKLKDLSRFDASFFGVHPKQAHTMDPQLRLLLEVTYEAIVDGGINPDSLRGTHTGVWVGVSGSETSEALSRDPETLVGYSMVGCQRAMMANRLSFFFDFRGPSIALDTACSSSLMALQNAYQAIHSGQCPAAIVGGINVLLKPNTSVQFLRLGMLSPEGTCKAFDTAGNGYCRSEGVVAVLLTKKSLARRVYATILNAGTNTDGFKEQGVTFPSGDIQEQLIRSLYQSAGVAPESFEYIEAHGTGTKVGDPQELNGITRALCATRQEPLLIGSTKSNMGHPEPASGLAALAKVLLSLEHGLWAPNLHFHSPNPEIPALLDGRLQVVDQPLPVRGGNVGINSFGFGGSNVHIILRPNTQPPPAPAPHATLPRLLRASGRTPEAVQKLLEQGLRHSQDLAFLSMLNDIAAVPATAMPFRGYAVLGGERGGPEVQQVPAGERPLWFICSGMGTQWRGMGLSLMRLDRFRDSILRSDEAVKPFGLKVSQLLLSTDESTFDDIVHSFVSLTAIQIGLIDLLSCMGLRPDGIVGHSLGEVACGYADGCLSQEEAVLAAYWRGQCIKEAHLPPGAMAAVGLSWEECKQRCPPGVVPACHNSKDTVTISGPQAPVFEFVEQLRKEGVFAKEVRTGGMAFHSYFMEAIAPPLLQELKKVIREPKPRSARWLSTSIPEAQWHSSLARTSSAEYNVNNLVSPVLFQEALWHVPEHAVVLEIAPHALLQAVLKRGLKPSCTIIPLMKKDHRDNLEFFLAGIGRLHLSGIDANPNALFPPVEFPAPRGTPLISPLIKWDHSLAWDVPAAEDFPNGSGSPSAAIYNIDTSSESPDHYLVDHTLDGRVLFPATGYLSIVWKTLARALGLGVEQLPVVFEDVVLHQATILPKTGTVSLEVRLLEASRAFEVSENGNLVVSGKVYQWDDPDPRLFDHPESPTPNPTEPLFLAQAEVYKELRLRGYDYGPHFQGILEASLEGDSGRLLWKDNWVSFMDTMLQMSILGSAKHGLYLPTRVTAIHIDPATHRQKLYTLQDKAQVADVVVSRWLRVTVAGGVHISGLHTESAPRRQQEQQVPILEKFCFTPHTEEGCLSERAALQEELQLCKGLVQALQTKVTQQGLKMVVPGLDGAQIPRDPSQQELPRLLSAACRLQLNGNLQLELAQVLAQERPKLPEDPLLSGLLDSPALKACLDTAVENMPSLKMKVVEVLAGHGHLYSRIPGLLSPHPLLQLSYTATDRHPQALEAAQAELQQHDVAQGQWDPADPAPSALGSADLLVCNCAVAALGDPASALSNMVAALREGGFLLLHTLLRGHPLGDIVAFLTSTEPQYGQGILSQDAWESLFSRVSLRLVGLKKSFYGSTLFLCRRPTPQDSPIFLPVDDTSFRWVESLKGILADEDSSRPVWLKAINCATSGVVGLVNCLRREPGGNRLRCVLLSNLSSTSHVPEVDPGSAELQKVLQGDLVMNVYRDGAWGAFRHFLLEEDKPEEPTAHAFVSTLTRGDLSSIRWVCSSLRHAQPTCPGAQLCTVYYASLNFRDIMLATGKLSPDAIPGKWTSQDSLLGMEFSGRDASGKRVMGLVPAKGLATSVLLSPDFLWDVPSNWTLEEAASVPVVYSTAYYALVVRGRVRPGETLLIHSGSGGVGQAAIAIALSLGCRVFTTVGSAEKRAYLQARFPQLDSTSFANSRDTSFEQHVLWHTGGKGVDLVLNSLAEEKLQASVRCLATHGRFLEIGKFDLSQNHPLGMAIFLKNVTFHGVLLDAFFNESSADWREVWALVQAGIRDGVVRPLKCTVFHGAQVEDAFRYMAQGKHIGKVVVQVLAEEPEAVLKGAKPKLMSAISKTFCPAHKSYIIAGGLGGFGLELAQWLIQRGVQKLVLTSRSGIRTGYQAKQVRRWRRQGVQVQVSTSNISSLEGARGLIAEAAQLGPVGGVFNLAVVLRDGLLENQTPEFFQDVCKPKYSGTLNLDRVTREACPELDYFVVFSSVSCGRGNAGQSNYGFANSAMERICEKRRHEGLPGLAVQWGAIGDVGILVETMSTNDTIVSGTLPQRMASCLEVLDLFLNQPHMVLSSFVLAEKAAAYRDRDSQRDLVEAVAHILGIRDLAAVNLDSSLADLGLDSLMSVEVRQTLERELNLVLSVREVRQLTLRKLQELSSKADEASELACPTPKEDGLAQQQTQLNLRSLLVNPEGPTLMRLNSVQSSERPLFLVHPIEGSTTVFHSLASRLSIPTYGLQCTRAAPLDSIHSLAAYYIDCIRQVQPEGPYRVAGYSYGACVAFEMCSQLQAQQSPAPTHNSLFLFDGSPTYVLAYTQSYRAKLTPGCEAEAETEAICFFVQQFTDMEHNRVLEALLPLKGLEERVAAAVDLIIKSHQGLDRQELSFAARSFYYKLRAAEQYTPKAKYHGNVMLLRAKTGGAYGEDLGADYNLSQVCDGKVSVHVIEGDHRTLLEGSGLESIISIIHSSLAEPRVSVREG
Assay type: biochemical
Protocol: Assays were performed in a 384-well black plate to measure the inhibition of FASN activities by individual compounds herein disclosed. An aliquot of 250 nL of compound was incubated with 10 μL of 40 nM FASN enzyme in assay buffer (50 mM HEPES pH=7.3, 0.5 mM EDTA, 1 mM Ascorbate, 100 mM NaCl and 0.04% TritonX-100) in each well at 25° C. for 60 minutes. After the plate was centrifuged briefly, 10 μL of substrate mix (20 μM Acetyl-CoA, 60 μM Malonyl-CoA, and 100 μM NADPH in assay buffer) was added to each well. The reaction was maintained at 25° C. for 90 minutes. The reaction was then quenched by adding 10 μL of 90 μM 7-Diethylamino-3-(4′-Maleimidylpheynyl)-4-Methylcoumarin in 50/50 Ethanol/H2O solution. The assay plate was incubated at 25° C. for 15 minutes, and read on a plate reader with excitation and emission wavelength at 360 nm and 530 nm, respectively. The IC50 of a given compound was calculated by fitting the dose response curve with a four parameter logistic equation.
`N#CC1(c2cccc(-c3ccc(C(=O)N4CCN(C(=O)C5(N)CC5)CC4)cc3)c2)CC1` [1-(3-{4-[4-(1-aminocyclopropanecarbonyl)piperazine-1-carbonyl]phenyl}phenyl)cyclopropane-1-carbonitrile] was tested, and the pIC50 was > 6.30. With `CC1(C)CN(C(=O)C2(O)CC2)CCN1C(=O)c1ccc(-c2ccc(Cl)cc2F)cc1` [1-{4-[4-(4-chloro-2-fluorophenyl)benzoyl]-3,3-dimethylpiperazine-1-carbonyl}cyclopropan-1-ol] the pIC50 was > 6.30. `COc1ccc2nc(-c3ccc(C(=O)N4CCN(C(=O)C5(O)CC5)CC4)c(F)c3F)ccc2c1` [1-[(4-{[2,3-difluoro-4-(6-methoxyquinolin-2-yl)phenyl]carbonyl}piperazin-1-yl)carbonyl]cyclopropan-1-ol] was tested, and the pIC50 was > 6.30. `CS(=O)(=O)n1ccc2ccc(-c3ccc(C(=O)N4CCN(C(=O)C5(O)CC5)CC4)cc3)cc21` [1-{4-[4-(1-methanesulfonyl-1H-indol-6-yl)benzoyl]piperazine-1-carbonyl}cyclopropan-1-ol] was tested, and the pIC50 was > 6.30. In the case of `O=C(c1ccc(N2CCc3ccc(F)cc3C2)cc1)N1CCN(C(=O)C2(O)CC2)CC1`, the pIC50 was > 6.30. In the case of `Nc1nc(-c2cccc(-c3ccc(C(=O)N4CCN(C(=O)C5(O)CC5)CC4)cc3)c2)cs1` [1-(4-{4-[3-(2-amino-1,3-thiazol-4-yl)phenyl]benzoyl}piperazine-1-carbonyl)cyclopropan-1-ol], the pIC50 was > 6.30. In the case of `O=C(c1ccc(-c2n[nH]c3c(F)cccc23)cc1F)N1CCN(C(=O)C2(O)CC2)CC1` [1-{4-[2-fluoro-4-(7-fluoro-1H-indazol-3-yl)benzoyl]piperazine-1-carbonyl}cyclopropan-1-ol], the pIC50 was > 6.30. In the case of `O=C(c1ccc(N2Cc3cccc(F)c3C2)cc1)N1CCN(C(=O)C2(O)CC2)CC1` [1-{4-[4-(4-fluoro-2,3-dihydro-1H-isoindol-2-yl)benzoyl]piperazine-1-carbonyl}cyclopropan-1-ol], the pIC50 was > 6.30. With `Cn1ncc2ccc(-c3ccc(C(=O)N4CCN(C(=O)C5(N)CC5)CC4)c(F)c3)cc21` [1-{4-[2-fluoro-4-(1-methyl-1H-indazol-6-yl)benzoyl]piperazine-1-carbonyl}cyclopropan-1-amine] the pIC50 was > 6.30. In the case of `Cc1cc2ccccc2n1-c1ccc(C(=O)N2CCN(C(=O)C3(N)CC3)CC2)c(F)c1` [1-{4-[2-fluoro-4-(2-methyl-1H-indol-1-yl)benzoyl]piperazine-1-carbonyl}cyclopropan-1-amine], the pIC50 was > 6.30. `COc1cc(Cl)ccc1-c1ccc(C(=O)N2CCN(C(=O)C3(O)CC3)CC2)cc1` [1-[(4-{[4-(4-chloro-2-methoxyphenyl)phenyl]carbonyl}piperazin-1-yl)carbonyl]cyclopropan-1-ol] was tested, and the pIC50 was > 6.30. `C[C@@H]1CN(C(=O)c2ccc(-c3nc4ccc(F)cc4o3)cc2)C[C@H](C)N1C(=O)C1(N)CC1` [1-[(2S,6R)-4-[4-(6-fluoro-1,3-benzoxazol-2-yl)benzoyl]-2,6-dimethylpiperazine-1-carbonyl]cyclopropan-1-amine] was tested, and the pIC50 was > 6.30. `Cn1cnc2cc(-c3ccc(C(=O)N4CCN(C(=O)C5(O)CC5)CC4)cc3F)ccc21` [1-{4-[3-fluoro-4-(1-methyl-1H-1,3-benzodiazol-5-yl)benzoyl]piperazine-1-carbonyl}cyclopropan-1-ol] was tested, and the pIC50 was > 6.30. With `O=C(Nc1cccc(-c2ccc(C(=O)N3CCN(C(=O)C4(O)CC4)CC3)cc2)c1)C1CC(F)(F)C1` [3,3-difluoro-N-(3-{4-[4-(1-hydroxycyclopropanecarbonyl)piperazine-1-carbonyl]phenyl}phenyl)cyclobutane-1-carboxamide] the pIC50 was > 6.30. `C[C@H]1CN(C(=O)c2ccc(-c3ccc4c(c3)ncn4C)cc2)CCN1C(=O)C1(O)CC1` [1-[(2S)-2-methyl-4-[4-(1-methyl-1H-1,3-benzodiazol-5-yl)benzoyl]piperazine-1-carbonyl]cyclopropan-1-ol] was tested, and the pIC50 was > 6.30. With `O=C(c1ccc(-c2ccc(F)cc2Cl)cc1)N1CCN(C(=O)C2(O)CC2)CC1` [1-[(4-{[4-(2-chloro-4-fluorophenyl)phenyl]carbonyl}piperazin-1-yl)carbonyl]cyclopropan-1-ol] the pIC50 was > 6.30. In the case of `CC(C)(C#N)c1cccc(-c2ccc(C(=O)N3CCN(C(=O)C4(O)CC4)CC3)cc2)c1` [2-(3-{4-[4-(1-hydroxycyclopropanecarbonyl)piperazine-1-carbonyl]phenyl}phenyl)-2-methylpropanenitrile], the pIC50 was > 6.30. With `N#CC1(c2cccc(-c3ccc(C(=O)N4CCN(C(=O)C5(O)CC5)CC4)c(F)c3)c2)CC1` [1-(3-{3-fluoro-4-[4-(1-hydroxycyclopropanecarbonyl)piperazine-1-carbonyl]phenyl}phenyl)cyclopropane-1-carbonitrile] the pIC50 was > 6.30. With `O=C(c1ccc(-c2cccc(Cl)c2Cl)cc1)N1CCN(C(=O)C2(O)CC2)CC1` [1-[(4-{[4-(2,3-dichlorophenyl)phenyl]carbonyl}piperazin-1-yl)carbonyl]cyclopropan-1-ol] the pIC50 was > 6.30. In the case of `O=C(c1ccc(-c2ccc3ncccc3c2)c(F)c1)N1CCN(C(=O)C2(O)CC2)CC1` [1-[(4-{[3-fluoro-4-(quinolin-6-yl)phenyl]carbonyl}piperazin-1-yl)carbonyl]cyclopropan-1-ol], the pIC50 was > 6.30. `O=C(c1ccc(-c2cccc(N3CCCS3(=O)=O)c2)cc1)N1CCN(C(=O)C2(O)CC2)CC1` [2-(3-{4-[4-(1-hydroxycyclopropanecarbonyl)piperazine-1-carbonyl]phenyl}phenyl)-1λ^6,2-thiazolidine-1,1-dione] was tested, and the pIC50 was > 6.30. With `Nc1cc(-c2cccc(-c3ccc(C(=O)N4CCN(C(=O)C5(O)CC5)CC4)cc3)c2)n[nH]1` [1-(4-{4-[3-(5-amino-1H-pyrazol-3-yl)phenyl]benzoyl}piperazine-1-carbonyl)cyclopropan-1-ol] the pIC50 was > 6.30. In the case of `Cc1n[nH]c2c(-c3ccc(C(=O)N4CCN(C(=O)C5(N)CC5)CC4)cc3)cccc12`, the pIC50 was > 6.30. With `O=C(c1ccc(-c2cccc(NS(=O)(=O)CC3CC3)c2)cc1)N1CCN(C(=O)C2(O)CC2)CC1` [1-cyclopropyl-N-(3-{4-[4-(1-hydroxycyclopropanecarbonyl)piperazine-1-carbonyl]phenyl}phenyl)methanesulfonamide] the pIC50 was > 6.30. For `O=C(c1ccc(-c2cccc(NS(=O)(=O)CCC(F)(F)F)c2)cc1)N1CCN(C(=O)C2(O)CC2)CC1` [3,3,3-trifluoro-N-(3-{4-[4-(1-hydroxycyclopropanecarbonyl)piperazine-1-carbonyl]phenyl}phenyl)propane-1-sulfonamide], the pIC50 was > 6.30. In the case of `O=C(c1ccc(N2CCc3ccccc3CC2)cc1)N1CCN(C(=O)C2(O)CC2)CC1` [1-{4-[4-(2,3,4,5-tetrahydro-1H-3-benzazepin-3-yl)benzoyl]piperazine-1-carbonyl}cyclopropan-1-ol], the pIC50 was > 6.30. `Cn1cnc2cc(-c3ccc(C(=O)N4CCN(C(=O)C5(O)CC5)CC4)c(F)c3)ccc21` [1-{4-[2-fluoro-4-(1-methyl-1H-1,3-benzodiazol-5-yl)benzoyl]piperazine-1-carbonyl}cyclopropan-1-ol] was tested, and the pIC50 was > 6.30. In the case of `N#Cc1ccc2cc(C3CCN(C(=O)N4CCN(C(=O)C5(O)CC5)CC4)CC3)ccc2c1` [6-{1-[4-(1-hydroxycyclopropanecarbonyl)piperazine-1-carbonyl]piperidin-4-yl}naphthalene-2-carbonitrile], the pIC50 was > 6.30. In the case of `Cn1cnc2cc(-c3ccc(C(=O)N4CCN(C(=O)C5(CO)CC5)CC4)cc3)ccc21` [(1-{4-[4-(1-methyl-1H-1,3-benzodiazol-5-yl)benzoyl]piperazine-1-carbonyl}cyclopropyl)methanol], the pIC50 was > 6.30.

Same assay, conditions: FASN enzymatic assay; Table 2-2
Work on `CC(C)NC(=O)c1ccc(F)c(-c2ccc(C(=O)N3CCN(C(=O)C4(O)CC4)CC3)cc2)c1` [4-fluoro-3-[4-({4-[(1-hydroxycyclopropyl)carbonyl]piperazin-1-yl}carbonyl)phenyl]-N-(propan-2-yl)benzamide] yielded a pIC50 of 5.30 to 6.30. In the case of `O=C(c1ccc(-c2ccn3ccnc3n2)cc1)N1CCN(C(=O)C2(O)CC2)CC1` [1-({4-[(4-{imidazo[1,2-a]pyrimidin-7-yl}phenyl)carbonyl]piperazin-1-yl}carbonyl)cyclopropan-1-ol], the pIC50 was 5.30 to 6.30. In the case of `O=C(c1ccc(-c2ccc3nncn3n2)cc1)N1CCN(C(=O)C2(O)CC2)CC1`, the pIC50 was 5.30 to 6.30. `O=C(c1ccc(-c2ccc3ncccc3c2)nc1)N1CCN(C(=O)C2(O)CC2)CC1` [1-[(4-{[6-(quinolin-6-yl)pyridin-3-yl]carbonyl}piperazin-1-yl)carbonyl]cyclopropan-1-ol] showed a pIC50 of 5.30 to 6.30.

Same assay, conditions: FASN enzymatic assay; Table 2-3
`N#Cc1cc(F)ccc1-c1ccc(C(=O)N2CCN(C(=O)C3(O)CC3)CC2)cc1` [5-fluoro-2-[4-({4-[(1-hydroxycyclopropyl)carbonyl]piperazin-1-yl}carbonyl)phenyl]benzonitrile] was tested, and the pIC50 was ≤ 5.30. With `O=C(c1ccc(-c2ccccc2)cc1)N1CCN(C(=O)C2(O)CCCC2)CC1` [1-({4-[(4-phenylphenyl)carbonyl]piperazin-1-yl}carbonyl)cyclopentan-1-ol] the pIC50 was ≤ 5.30. For `CC(O)(C(=O)N1CCN(C(=O)c2ccc(-c3ccccc3)cc2)CC1)C(F)(F)F` (stereo not shown) [3,3,3-trifluoro-2-hydroxy-2-methyl-1-{4-[(4-phenylphenyl)carbonyl]piperazin-1-yl}propan-1-one], the pIC50 was ≤ 5.30. For `O=C(c1ccc(-c2ccc(C(F)(F)F)nc2)cc1)N1CCN(C(=O)C2(O)CC2)CC1` [1-{[4-({4-[6-(trifluoromethyl)pyridin-3-yl]phenyl}carbonyl)piperazin-1-yl]carbonyl}cyclopropan-1-ol], the pIC50 was ≤ 5.30.
